Results from article PMC9227013, “Synthesis, Anticancer Potential and Comprehensive Toxicity Studies of Novel Brominated Derivatives of Bacterial Biopigment Prodigiosin from Serratia marcescens ATCC 27117” (Molecules, 2022).
Converted amounts (≈) assume the structure as drawn. Read-outs that look alike come from different tables or passages of the source.

Columns and labels:
MRC-5 (lung fibroblasts) = test: MTT antiproliferative assay on MRC-5 cells; type: cell-based; conditions: for IC50: Homo sapiens
Protocol: (§1) Selected cell lines MRC-5 (lung fibroblasts), A549 (lung cancer), A375 (melanoma, skin cancer), MDA-MB-231 (breast cancer), and HCT116 (colon cancer) were obtained from ATCC, Manassas, US. Antiproliferative activities of PG and its Br derivatives were measured using the standard colorimetric MTT [3-(4,5-dimethylthiazol-2-yl)-2,5-diphenyltetrazolium bromide] assay. Briefly, cells were plated in a 96-well flat-bottom plate (Sarstedt, Nümbrecht, Germany) at a concentration of 1 × 10^4 cells per well, grown in a humidified atmosphere of 95% air and 5% CO2 at 37 °C, and maintained as monolayer cultures in RPMI 1640 medium supplemented with 10% fetal bovine serum (FBS), 100 U/mL penicillin, and 100 μg/mL streptomycin (all media components from Gibco™ by Thermo Fischer Scientific CE). Each tested compound was added to the cells at a concentration of 0.05–100.00 μg/mL, and the treatment lasted for 48 h. The MTT assay was performed two times in four replicates, and the results were presented as a percentage of the DMSO-treated control that was arbitrarily set to 100%. Plates were read using the Tecan Infinite 200 Pro multiplate reader (Tecan Group Ltd., Männendorf, Switzerland).
(§2) To assess the effect of the treatment duration, exposure of MRC-5 and HCT116 cells to PG and its Br derivatives was observed after 24 h, 48 h, and 72 h and measured using the MTT assay, as described above. MRC-5 and HCT-116 cells treated for 24 h were additionally analyzed using DM IL LED Inverted Microscope (Leica Microsystems, Mannheim, Germany) at 20× magnification.

A549 (lung cancer) = test: MTT antiproliferative assay on A549 cells; type: cell-based; conditions: Homo sapiens
Protocol: as §1

[1] = test system: A375 (melanoma, skin cancer); test: MTT antiproliferative assay on A375 cells; type: cell-based; conditions: Homo sapiens
Protocol: as §1

[2] = test system: MDA-MB-231 (breast cancer); test: MTT antiproliferative assay on MDA-MB-231 cells; type: cell-based; conditions: for IC50: Homo sapiens
Protocol: as §1

HCT116 (colon cancer) = test: MTT antiproliferative assay on HCT116 cells; type: cell-based; conditions: for IC50: Homo sapiens
Protocol: as §1, §2

MRC-5 cells = test: Annexin V flow cytometry, early apoptosis; type: cell-based; conditions: MRC-5, compound at IC50 concentration, 24 h
Protocol: The eBioscience^TM Annexin V Apoptosis Detection Kit APC (Invitrogen by Thermo Fischer Scientific, Waltham, MA, USA) was used for the assessment of cellular integrity and the externalization of phosphatidylserine. MRC-5 cells were plated in a 6-well flat-bottom plate at a concentration of 2.5 × 10^5 cells per well, grown for 24 h in a humidified atmosphere of 95% air and 5% CO2 at 37 °C in RPMI 1640 medium supplemented with 10% fetal bovine serum (FBS), 100 U/mL penicillin, and 100 μg/mL streptomycin (Gibco™ by Thermo Fischer Scientific CE, Waltham, MA, USA). Each tested compound was added to the cells at IC50 concentration, and the incubation continued for another 24 h under the same conditions. Upon incubation, cells were collected, washed once with Dulbecco’s Phosphate-Buffered Saline (Gibco™ by Thermo Fischer Scientific CE, Waltham, MA, USA), and stained with Annexin V FITC and propidium iodide (PI) under the manufacturer’s instructions. Briefly, MRC-5 cells were resuspended in 1 × Binding Buffer at 1–5 × 10^6 cells per mL and incubated with 5.00 µL Annexin V FITC for 15 min at room temperature in a final volume of 100 μL. […] Immediately after staining, cells were analyzed using a CyFlow Space Partec flow cytometer, with Partec FloMax software (Partec GmbH, Münster, Germany).

[3] = test system: Caenorhabditis elegans AU37; test: Roundworm (C. elegans) survival assay; type: in vivo; conditions: for Survival rate: 48 h
Protocol: Nematode roundworms (Caenorhabditis elegans AU37) were obtained from the Caenorhabditis Genetics Center (CGC), University of Minnesota, Minneapolis, Minnesota, US. C. elegans AU37 (glp-4; sek-1) was propagated under standard conditions, synchronized by hypochlorite bleaching, and cultured on nematode growth medium using E. coli OP50 as a food source, as described previously. The C. elegans survival assay was carried out following the standard procedure with some modifications. Briefly, synchronized worms (L4 stage) were suspended in a medium containing 95% M9 buffer (3.0 g of KH2PO4, 6.0 g of Na2HPO4, 5.0 g of NaCl, and 1 mL of 1 M MgSO4∙7H2O in 1 L of water), 5% LB broth, and 10 μg/mL of cholesterol (Sigma-Aldrich, Munich, Germany). The experiment was carried out in 96-well flat-bottomed microtiter plates (Sarstedt, Nümbrecht, Germany) in the final volume of 100 μL per well. 25 μL of this suspension of nematodes (25–35 nematodes) were transferred to the wells of a 96-well microtiter plate, where 50 μL of the medium was previously added. Next, 25 μL of the solvent control (1% DMSO) or 25 μL of the concentrated tested compound solution was added to the test wells. Final concentrations of the compounds were 50.00, 25.00, 12.50, 6.25, 3.13, and 1.57 µg/mL. Subsequently, the plates were incubated at 25 °C for 2 days. The fraction of dead worms was determined after 48 h by counting the number of dead worms and the total number of worms in each well, using a Carl Zeiss™ Stemi 508 Stereomicroscope (Zeiss Group, Jena, Germany) at 40× magnification. The compounds were tested three times in each assay and each assay was repeated two times (n = 6). As a negative control experiment, nematodes were exposed to the medium containing 1% DMSO.

[4] = test system: zebrafish (Danio rerio) embryos; test: Zebrafish (D. rerio) embryotoxicity; type: in vivo; conditions: for death rate: 10 µg/mL applied at 6 hpf
Protocol: Wild-type zebrafish (Danio rerio) strain was obtained from the commercial supplier Pet Center, Belgrade, Serbia. Zebrafish embryotoxicity assay was performed according to general rules of the OECD Guidelines for the testing of chemicals. The wild-type zebrafish (D. rerio) strain was kept under controlled environmental conditions (water temperature 28 °C, 14 h under the light and 10 h in the dark) and fed regularly three times a day with commercially dry flake food supplemented with Artemia nauplii (TetraMinTM flakes; Tetra Melle, Germany). Zebrafish embryos were produced by female and male adults mating in the ratio of 1:2. Obtained embryos were collected and washed from detritus and carefully handled. Only fertilized embryos were selected and distributed into 24-well plates (Sarstedt, Germany) containing 10 embryos per well. Each well contained exactly 1 mL of water for embryos (0.2 g/L of Instant Ocean® Salt in distilled water). For assessing lethal and developmental toxicity, embryos at the 6 and 20 h postfertilization (hpf) stages were treated with selected compounds at concentrations of 0.1–100 μg/mL (maximum DMSO concentration in the negative control was 1%) and incubated at 28 °C. Experiments were performed in triplicate, using 30 embryos for each concentration. For five days, the appearance of different morphophysiological parameters in embryo development was monitored, and dead embryos were counted and discarded every 24 h. On the fifth day, the embryos were anesthetized by the addition of 0.1% (w/v) tricaine solution (Sigma-Aldrich, St. Louis, Missouri, US), observed under a stereomicroscope (SMZ-143-N2GG, Motic, Germany) at 3.5× magnification, photographed, and killed by freezing at −20 °C for ≥24 h. All experiments involving zebrafish were performed in compliance with the European directive 2010/63/EU and the ethical guidelines of the Guide for Care and Use of Laboratory Animals of the Institute of Molecular Genetics and Genetic Engineering, University of Belgrade, Serbia.

[5] = test system: A549, A375, MDA-MB-231, and HCT116 cancer cell lines; test: MTT assay, whole cell line panel; type: cell-based; conditions: 48 h
Protocol: as §1

A549 = conditions: cited from earlier work
melanoma cell line A375 = test system: melanoma cell line A375; parameters: method as in PMID 16736886; conditions: cited from earlier work
Breast cancer MDA-MB-231 = conditions: cited from earlier work
HCT116 colon cancer = test system: HCT116 colon cancer; parameters: method as in PMID 24247721; conditions: HCT116, 72 h treatment; cited from earlier work
[6] = test system: HFF (human foreskin fibroblasts) cells; parameters: method as in PMID 24247721; conditions: cited from earlier work
[7] = test system: C. elegans first stage juveniles; conditions: cited from earlier work
[8] = test system: juvenile Meloidogyne incognita J2; parameters: method as in doi:10.3390/agronomy12010041; conditions: cited from earlier work
Heterodera schachtii J2 = conditions: cited from earlier work
[9] = test system: 60-cell-line panel of the National Cancer Institute (NCI); conditions: NCI 60-cell-line panel; cited from earlier work
C. elegans = conditions: PG obtained from S. marcescens; cited from earlier work
[10] = test system: juveniles of Radopholus similis; conditions: cited from earlier work
Meloidogyne javanica = conditions: cited from earlier work

CCCCCC1=C(Br)/C(=C/c2[nH]c(-c3[nH]ccc3Br)cc2OC)N=C1C [PG-Br2]
IC50 (MRC-5 (lung fibroblasts); MRC5, MRC-5, 48 h treatment, read-out: IC50): 10 ± 0.09 µg/mL (≈ 20.8 µM)
IC50 (MRC-5 (lung fibroblasts); MRC5, MRC-5, exposure time 24 h, read-out: IC50): 15 ± 0.05 µg/mL (≈ 31.2 µM)
IC50 (MRC-5 (lung fibroblasts); MRC5, MRC-5, exposure time 72 h, read-out: IC50): 10 ± 0.08 µg/mL (≈ 20.8 µM)
IC50 (A549 (lung cancer); A549, 48 h treatment, read-out: IC50): 16 ± 0.08 µg/mL (≈ 33.2 µM)
IC50 ([1]; A-375, A375, 48 h treatment, read-out: IC50): 12 ± 0.04 µg/mL (≈ 24.9 µM)
IC50 ([2]; MDA-MB-231, 48 h treatment, read-out: IC50): 17 ± 0.05 µg/mL (≈ 35.3 µM)
IC50 (HCT116 (colon cancer); HCT-116, HCT116, 48 h treatment, read-out: IC50): 10 ± 0.08 µg/mL (≈ 20.8 µM)
IC50 (HCT116 (colon cancer); HCT-116, HCT116, exposure time 24 h, read-out: IC50): 50 ± 0.09 µg/mL (≈ 104 µM)
IC50 (HCT116 (colon cancer); HCT-116, HCT116, exposure time 72 h, read-out: IC50): 10 ± 0.05 µg/mL (≈ 20.8 µM)
Annexin V Positive Cells (MRC-5 cells): 19.6 ± 0.6%
Survival rate ([3]; 1.57 µg/mL): 100 ± 0.00%
Survival rate ([3]; 3.13 µg/mL): 100 ± 0.00%
Survival rate ([3]; 6.25 µg/mL): 100 ± 0.00%
Survival rate ([3]; 12.50 µg/mL): 100 ± 0.00%
Survival rate ([3]; 25.00 µg/mL): 100 ± 0.00%
Survival rate ([3]; 50.00 µg/mL): 100 ± 0.00%
motility of nematodes ([3]; all tested concentrations): significantly impaired
death rate [4]: 0%
embryos survival rate ([4]; 20 µg/mL, 6 hpf and 20 hpf): 100%
teratogenic effects ([4]; 20 µg/mL, 6 hpf and 20 hpf): without any teratogenic effects
effect on embryos ([4]; 50–70 µg/mL, application at 6 hpf): severe toxicity and abnormal development
lower cytotoxicity in comparison to PG ([5]; human): 8-27 fold

CCCCCC1=CC(=Cc2[nH]c(-c3ccc[nH]3)cc2OC)N=C1C [PG, 4-Methoxy-5-[(5-methyl-4-pentyl-2H-pyrrol-2-ylidene)methyl]-1H,1'H-2,2'-bipyrrole]
IC50 (MRC-5 (lung fibroblasts); MRC5, 24 h): 1.8 ± 0.04 µg/mL (≈ 5.57 µM)
IC50 (MRC-5 (lung fibroblasts); MRC5, 48 h): 1.2 ± 0.04 µg/mL (≈ 3.71 µM)
IC50 (MRC-5 (lung fibroblasts); MRC5, 72 h): 0.7 ± 0.02 µg/mL (≈ 2.16 µM)
fold lower IC50 of 72 h in comparison to 24 h exposure (MRC-5 (lung fibroblasts); MRC-5): 2.5 fold
IC50 (A549 (lung cancer); A549, 48 h): 1.3 ± 0.02 µg/mL (≈ 4.02 µM)
IC50 ([1]; A-375, 48 h): 1.25 ± 0.04 µg/mL (≈ 3.86 µM)
IC50 ([2]; MDA-MB-231, 48 h): 0.62 ± 0.01 µg/mL (≈ 1.92 µM)
selectivity between healthy and cancer cell lines ([2]; MRC-5 vs breast cancer cells (MDA-MB-231), 48 h): 1.9
IC50 (HCT116 (colon cancer); HCT-116, 24 h): 5 ± 0.06 µg/mL (≈ 15.5 µM)
IC50 (HCT116 (colon cancer); HCT-116, 48 h): 0.7 ± 0.02 µg/mL (≈ 2.16 µM)
IC50 (HCT116 (colon cancer); HCT-116, 72 h): 0.8 ± 0.02 µg/mL (≈ 2.47 µM)
selectivity between healthy and cancer cell lines (HCT116 (colon cancer); MRC-5 vs colon cancer cells (HCT116), 48 h): 1.7
Annexin V Positive Cells (MRC-5 cells): 20.3 ± 0.5%
Survival rate ([3]; 1.57 µg/mL): 100 ± 0.00%
Survival rate ([3]; 3.13 µg/mL): 100 ± 0.00%
Survival rate ([3]; 6.25 µg/mL): 100 ± 0.00%
Survival rate ([3]; 12.50 µg/mL): 100 ± 0.00%
Survival rate ([3]; 25.00 µg/mL): 100 ± 0.00%
Survival rate ([3]; 50.00 µg/mL): 100 ± 0.00%
death rate [4]: 100%
effect on embryos ([4]; 2.5 and 0.1 µg/mL, both at 6 hpf and 20 hpf): all the embryos survived, but developed into slightly smaller fish with microcephaly
IC50 ([5]; read-out: IC50 values range over the tested cancer cell lines): 0.62 to 1.3 µg/mL (≈ 1.92 to 4.02 µM)
anticancer activity against A549 (lower end of literature range) (A549): 0.03 µg/mL
anticancer activity against A549 (upper end of literature range) (A549): 3.23 µg/mL
sensitivity of A375 to PG (melanoma cell line A375): 0.70 µg/mL
sensitivity of MDA-MB-231 to PG (lower end of literature range) (Breast cancer MDA-MB-231): 0.02 µg/mL
sensitivity of MDA-MB-231 to PG (upper end of literature range) (Breast cancer MDA-MB-231): 0.68 µg/mL
IC50 (HCT116 colon cancer): 0.04 µg/mL (≈ 0.124 µM)
growth inhibition ([6]; 0.36 µg/mL PG): 76.16%
IC50 ([6]; 72 h of treatment): 0.15 µg/mL (≈ 0.464 µM)
EC50 [7]: 0.04 µg/mL (≈ 0.124 µM)
IC50 [8]: 200 µg/mL (≈ 618 µM)
Effectiveness (Heterodera schachtii J2): 4.30 µg/mL
average LC50 [9]: 0.68 µg/mL
toxicological assessment (C. elegans): no significant toxic activity
LC50 [10]: 83 µg/mL (≈ 257 µM)
LC50 (Meloidogyne javanica): 79 µg/mL (≈ 244 µM)
